These results are taken from ChEMBL document CHEMBL1201862, “PubChem BioAssay data set” (2004).

Test systems include SW-620; OVCAR-4; OVCAR-3; UACC-257; HL-60; HT-29; NCI-H460; A549; HCC 2998; K562; SK-MEL-2; SF-539; BT-549; HOP-62; Malme-3M; HCT-116; CAKI-1; SN12C; CCRF-CEM.
Assay in all cases: growth of human tumour cells (NCI), 48 h

Structures are written as SMILES.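 Cells were grown in 96-well plates and exposed to each compound for 48 hours at five concentrations; endpoints were interpolated linearly between bracketing concentrations, or set to the highest concentration if not reached. Here, GI50 denotes the concentration required for 50% inhibition of growth.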 Calls of active or inactive are those of the source. Rule as the data show it: active = GI50 up to about 1.1 µM and inactive = higher.

Turning to `CCN(CC)C(=S)SC(C(=O)Nc1nnc(-c2ccc(Cl)cc2)o1)c1ccccc1` (stereo unspecified), the GI50 with SW-620 was 5.41 µM (inactive); in the assay with OVCAR-4, 3.08 µM (inactive); in the assay with OVCAR-3 it was 3.21 µM (inactive); in the assay with UACC-257 it was 31.6 µM (inactive); with HL-60, 4.85 µM (inactive); in the assay on HT-29, 4.86 µM (inactive). Moreover, the GI50 with NCI-H460 is 10.4 µM (inactive); in the assay on A549 it was 17.9 µM (inactive); in the assay with HCC 2998, 3.41 µM (inactive); with K562, 12.8 µM (inactive); in the assay with SK-MEL-2, 20.6 µM (inactive); with SF-539 it was 14.8 µM (inactive). Further, the GI50 in the assay with BT-549 is 28.5 µM (inactive); in the assay with HOP-62, 14.7 µM (inactive); in the assay on Malme-3M it was 13.8 µM (inactive); in the assay on HCT-116 it was 3.46 µM (inactive); in the assay with CAKI-1, 11.7 µM (inactive); in the assay on SN12C, 13.3 µM (inactive). For the same molecule, the GI50 in the assay on CCRF-CEM is 2.84 µM (inactive).

For `Cc1cc(S(=O)(=O)Nc2nc(N)nc(N(C)C)n2)c(SC(C(=O)O)c2ccccc2)cc1Cl` (stereo unspecified), the GI50 with SW-620, in the assay with OVCAR-4, in the assay with OVCAR-3, in the assay on UACC-257, in the assay with HL-60 and in the assay with HT-29 was > 10 µM (inactive) in each case. Further, the GI50 in the assay with NCI-H460, in the assay on A549, in the assay with HCC 2998, in the assay with K562, in the assay with SK-MEL-2 and in the assay on SF-539 was > 10 µM (inactive) in each case. Besides, the GI50 with BT-549, in the assay on HOP-62, in the assay on Malme-3M, with HCT-116, in the assay on CAKI-1 and in the assay with SN12C was > 10 µM (inactive) in each case. The GI50 with CCRF-CEM is > 10 µM (inactive).

Take `COc1cc2ncnc(Nc3cccc(Br)c3)c2cc1OC`: the GI50 is 13.2 µM (inactive) in the assay with SW-620; 4.07 µM (inactive) in the assay with OVCAR-4; 5.14 µM (inactive) in the assay with OVCAR-3; 7.5 µM (inactive) in the assay with UACC-257; > 28.8 µM (inactive) with HL-60; 3.83 µM (inactive) in the assay with HT-29. Further, the GI50 in the assay with NCI-H460 was 5.75 µM (inactive); in the assay with A549 it was 7.6 µM (inactive); with HCC 2998, 3.26 µM (inactive); in the assay on K562 it was 15.9 µM (inactive); in the assay with SK-MEL-2 it was 3.14 µM (inactive); in the assay with SF-539 it was 4.07 µM (inactive). Besides, the GI50 was 12.8 µM (inactive) with BT-549; 10.4 µM (inactive) in the assay with HOP-62; 7.36 µM (inactive) with Malme-3M; 14.4 µM (inactive) in the assay on HCT-116; 1.37 µM (inactive) in the assay with CAKI-1; 13.2 µM (inactive) with SN12C. In addition, the GI50 in the assay with CCRF-CEM was 30.2 µM (inactive).

In the case of `Brc1ccc2nc(-c3cccs3)nc(N3CCN(c4ccccc4)CC3)c2c1`, the GI50 in the assay with SW-620, with OVCAR-4, in the assay with OVCAR-3, in the assay with UACC-257, in the assay with HL-60 and with HT-29 was > 100 µM (inactive) throughout. Besides, the GI50 in the assay on NCI-H460, with A549, with HCC 2998, in the assay with K562, in the assay with SK-MEL-2 and in the assay with SF-539 was > 100 µM (inactive) each time. The GI50 in the assay with BT-549, in the assay with HOP-62, in the assay on Malme-3M, in the assay on HCT-116, in the assay with CAKI-1 and with SN12C was > 100 µM (inactive) each time.

As to `O=c1[nH]nc(Cc2ccc(Cl)cc2)n1/N=C\CC/C=N\n1c(Cc2ccc(Cl)cc2)n[nH]c1=O`, the GI50 with SW-620 is > 62.2 µM (inactive); with OVCAR-4 it was > 81.3 µM (inactive); with OVCAR-3, > 100 µM (inactive); in the assay with UACC-257 it was 50.9 µM (inactive); in the assay on HL-60, > 24.2 µM (inactive); in the assay with HT-29 it was > 26.2 µM (inactive). Besides, the GI50 is > 100 µM (inactive) with NCI-H460; > 100 µM (inactive) with A549; > 100 µM (inactive) in the assay on HCC 2998; > 88.7 µM (inactive) with K562; 29.8 µM (inactive) in the assay on SK-MEL-2; 8.49 µM (inactive) with SF-539. Further, the GI50 was 12.2 µM (inactive) in the assay with BT-549; 8.83 µM (inactive) in the assay with HOP-62; 24.3 µM (inactive) in the assay with Malme-3M; 27.2 µM (inactive) in the assay with HCT-116; > 56 µM (inactive) in the assay with CAKI-1; 59.2 µM (inactive) in the assay with SN12C.

For `O=P12N(CCN1c1ccccc1)CCN2c1ccccc1`, the GI50 with SW-620, in the assay on OVCAR-4, in the assay on OVCAR-3, with UACC-257, with HL-60 and with HT-29 was > 100 µM (inactive) throughout. The GI50 in the assay with NCI-H460, in the assay with A549, with HCC 2998, in the assay on K562, in the assay with SK-MEL-2 and in the assay on SF-539 was > 100 µM (inactive) each time. For the same molecule, the GI50 with BT-549, in the assay on HOP-62, with Malme-3M, in the assay with HCT-116, in the assay on CAKI-1 and with SN12C was > 100 µM (inactive) each time. For the same molecule, the GI50 with CCRF-CEM is > 100 µM (inactive).

Take `CC1=NN(c2nc(N)nc(/C(C#N)=C\c3ccc(-c4ccc([N+](=O)[O-])cc4)o3)n2)C(C)(C)C1`: the GI50 is > 100 µM (inactive) in the assay on SW-620; > 100 µM (inactive) in the assay on OVCAR-4; > 100 µM (inactive) with OVCAR-3; > 100 µM (inactive) in the assay on UACC-257; 17.1 µM (inactive) in the assay on HL-60; > 100 µM (inactive) in the assay on HT-29. Moreover, the GI50 in the assay with NCI-H460, with A549, with HCC 2998, in the assay with K562, in the assay on SK-MEL-2 and in the assay with SF-539 was > 100 µM (inactive) each time. Besides, the GI50 with BT-549 was > 100 µM (inactive); in the assay with HOP-62 it was 1.78 µM (inactive); in the assay with Malme-3M, > 100 µM (inactive); in the assay with HCT-116, > 100 µM (inactive); with CAKI-1 it was > 100 µM (inactive); in the assay with SN12C, > 100 µM (inactive). Moreover, in the assay with CCRF-CEM, the GI50 was 0.807 µM (active).

Turning to `Cc1ccc(C(=O)N(Cc2ccccc2)Cc2ccccc2)cc1/N=N/N(C)C`, the GI50 was 43.1 µM (inactive) in the assay with SW-620; 11.2 µM (inactive) with OVCAR-4; 4.49 µM (inactive) with OVCAR-3; 6.75 µM (inactive) with UACC-257; 22.6 µM (inactive) in the assay on HL-60; 7.6 µM (inactive) in the assay with HT-29. Further, the GI50 with NCI-H460 is 14.7 µM (inactive); with A549 it was 17.5 µM (inactive); with HCC 2998 it was 29.6 µM (inactive); in the assay on K562 it was 27.2 µM (inactive); with SK-MEL-2 it was 3.08 µM (inactive); with SF-539, 18.5 µM (inactive). In addition, the GI50 in the assay on BT-549 is 18.5 µM (inactive); in the assay with HOP-62, 23.1 µM (inactive); in the assay with Malme-3M, 18.2 µM (inactive); in the assay with HCT-116 it was 8.39 µM (inactive); in the assay on CAKI-1, 6.82 µM (inactive); in the assay on SN12C, 14.6 µM (inactive). Also, in the assay with CCRF-CEM, the GI50 is 24.2 µM (inactive).

`Cc1nc2sccn2c1C(=O)OCCOCCOCCOCCOC(=O)c1c(C)nc2sccn12`: the GI50 in the assay on SW-620 was > 100 µM (inactive); with OVCAR-4, 71.8 µM (inactive); in the assay with OVCAR-3, > 100 µM (inactive); in the assay with UACC-257, 16.5 µM (inactive); in the assay with HL-60, 15.7 µM (inactive); with HT-29 it was > 100 µM (inactive). The GI50 in the assay on NCI-H460 is 80.7 µM (inactive); in the assay on A549, > 100 µM (inactive); in the assay with HCC 2998, > 100 µM (inactive); in the assay with K562, 35.5 µM (inactive); in the assay on SK-MEL-2, 76.4 µM (inactive); in the assay with SF-539, 77.4 µM (inactive). Further, the GI50 in the assay with BT-549 was 34.6 µM (inactive); in the assay on HOP-62 it was > 100 µM (inactive); in the assay on Malme-3M, > 100 µM (inactive); in the assay with HCT-116, > 100 µM (inactive); in the assay on CAKI-1, > 100 µM (inactive); in the assay on SN12C, > 100 µM (inactive).

In the case of `COC1C(O)CC(OC2C(C)OC(Oc3cc(O)c4c(O)c5c(cc4c3)C[C@@H]([C@H](OC)C(=O)[C@@H](O)[C@@H](C)O)[C@H](OC3CC(OC4CC(OC6CC(C)(O)C(O)C(C)O6)C(O)C(C)O4)C(O)C(C)O3)C5=O)CC2OC(C)=O)OC1C` (stereo partly specified), the GI50 with SW-620 was > 100 µM (inactive); in the assay on OVCAR-4, > 100 µM (inactive); in the assay on OVCAR-3, > 100 µM (inactive); in the assay with HL-60, > 100 µM (inactive); in the assay with HT-29, 65.2 µM (inactive); in the assay with NCI-H460 it was 31.6 µM (inactive). In addition, the GI50 in the assay on A549 is 63.1 µM (inactive); with HCC 2998 it was 97.9 µM (inactive); in the assay with K562, 40.1 µM (inactive); in the assay on SK-MEL-2, 79.3 µM (inactive); in the assay with SF-539, 38.6 µM (inactive); in the assay with BT-549, > 100 µM (inactive). Besides, the GI50 in the assay with HOP-62 was > 100 µM (inactive); with Malme-3M, 3.47 µM (inactive); in the assay on HCT-116 it was 59.2 µM (inactive); in the assay with CAKI-1, > 100 µM (inactive); in the assay on SN12C, 32.5 µM (inactive); in the assay with CCRF-CEM, > 100 µM (inactive).
